Results on 16 compounds are retold here after PubChem BioAssay (NCI).

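Cells were grown in 96-well plates and exposed to each compound for 48 hours at five concentrations; endpoints were interpolated linearly between bracketing concentrations, or set to the highest concentration if not reached. GI50 marks 50% less growth. TGI: total growth inhibition.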

Some test systems named below: HCT-116 colon; M14 melanoma; NCI-H23 lung; OVCAR-3 ovarian; RPMI-8226 leukemia; SF-539 CNS; SK-MEL-2 melanoma; SK-MEL-28 melanoma; MCF7 breast; MDA-MB-435; NCI/ADR-RES ovarian.
Assay in all cases: NCI-60 cell line screen, 48 h

In the case of `C=CC(=O)NCNC(=O)C=C`, the TGI in the test with HCT-116 colon, in the test on M14 melanoma, with NCI-H23 lung, in the test on OVCAR-3 ovarian, in the test with RPMI-8226 leukemia and in the test on SF-539 CNS was over 100 µM in each case. Further, the TGI with SK-MEL-2 melanoma and in the test on SK-MEL-28 melanoma was over 100 µM each time.

Turning to `COc1cc(/C=C/C(=O)c2ccc(F)cc2)ccc1OCCCCCOc1cc2c(cc1OC)C(=O)N1CCCC1C=N2` (stereo not drawn), the GI50 was 0.0491 µM with M14 melanoma; under 0.01 µM in the test on MCF7 breast; 0.0339 µM in the test on MDA-MB-435; 0.0186 µM with NCI-H23 lung; 0.239 µM with NCI/ADR-RES ovarian; 0.0101 µM in the test on RPMI-8226 leukemia. Further, the GI50 with SF-539 CNS is under 0.0166 µM; in the test with SK-MEL-2 melanoma, 0.062 µM; with SK-MEL-28 melanoma, 0.194 µM. The TGI with M14 melanoma was 0.266 µM; with MCF7 breast, 0.0395 µM; with MDA-MB-435, 0.145 µM; in the test with NCI-H23 lung, 0.0662 µM; in the test on NCI/ADR-RES ovarian, 2.47 µM; with RPMI-8226 leukemia, 0.0383 µM. For the same compound, the TGI in the test with SF-539 CNS worked out at 0.0301 µM; with SK-MEL-2 melanoma, 1.51 µM; in the test with SK-MEL-28 melanoma, 0.473 µM.

Consider `Cc1cc(C)c(NC(=O)/C=C/c2ccccc2)c(C)c1`, for which the TGI with M14 melanoma, in the test with MCF7 breast, with MDA-MB-435, with NCI-H23 lung, with NCI/ADR-RES ovarian and in the test with OVCAR-3 ovarian was over 100 µM throughout. Besides, the TGI in the test with RPMI-8226 leukemia, with SF-539 CNS, in the test with SK-MEL-2 melanoma and in the test with SK-MEL-28 melanoma was over 100 µM in each case.

For `OCC1OC(n2cnc3c(SCc4ccccc4)ncnc32)C(O)C1O` (stereo not drawn), the TGI with HCT-116 colon, in the test on M14 melanoma, in the test with MCF7 breast, with MDA-MB-435, in the test on NCI-H23 lung and with NCI/ADR-RES ovarian was over 100 µM throughout. The TGI in the test on OVCAR-3 ovarian, in the test with RPMI-8226 leukemia, with SF-539 CNS, in the test with SK-MEL-2 melanoma and with SK-MEL-28 melanoma was over 100 µM throughout.

Consider `CC(C)OC(=O)NNc1cccc(Cl)c1`, for which the TGI in the test on HCT-116 colon, in the test on M14 melanoma, in the test with MCF7 breast, in the test with MDA-MB-435, with NCI-H23 lung and with NCI/ADR-RES ovarian was over 100 µM in each case. The TGI in the test with OVCAR-3 ovarian, with RPMI-8226 leukemia, in the test with SF-539 CNS, in the test on SK-MEL-2 melanoma and in the test with SK-MEL-28 melanoma was over 100 µM in each case.

Regarding `Oc1c(Cl)c(Cl)c(O)c(CCNc2nccs2)c1Cl`, the TGI in the test with HCT-116 colon stood at 23.6 µM; in the test with M14 melanoma, 36 µM; with MCF7 breast, 10.2 µM; with MDA-MB-435 it was 41.8 µM; in the test on NCI-H23 lung it was 37.9 µM; in the test with NCI/ADR-RES ovarian it was 50.5 µM. Moreover, the TGI is 33.3 µM in the test with OVCAR-3 ovarian, 4.14 µM in the test on SF-539 CNS, 48.4 µM in the test with SK-MEL-2 melanoma and 67.9 µM in the test on SK-MEL-28 melanoma.

For `Cc1cccc(N=C/C=C(\Cl)c2ccc3ccccc3c2)c1`, the TGI is 9.02 µM in the test on HCT-116 colon; 38 µM with M14 melanoma; over 95.9 µM in the test on MCF7 breast; 39.8 µM with MDA-MB-435; 34.5 µM with NCI-H23 lung; 47.7 µM in the test with NCI/ADR-RES ovarian. Also, the TGI in the test on OVCAR-3 ovarian was determined as 32.3 µM; in the test with RPMI-8226 leukemia, 29 µM; with SF-539 CNS, 40.7 µM; with SK-MEL-2 melanoma, 68.9 µM; with SK-MEL-28 melanoma, 63.6 µM.

As for `CN1CCN(c2ccc3[nH]c(C4=C(O)C(=O)[C@@H]5C(=C4O)N=C(CO)N5C)nc3n2)CC1`, the TGI in the test on HCT-116 colon, in the test on M14 melanoma, in the test on MDA-MB-435, in the test on NCI-H23 lung, with NCI/ADR-RES ovarian and in the test with OVCAR-3 ovarian was over 100 µM throughout. Further, the TGI in the test on RPMI-8226 leukemia, in the test on SF-539 CNS and with SK-MEL-28 melanoma was over 100 µM each time.

For `CC(=O)N=c1ccc2nc(N)nn(O)c-2c1`, the TGI in the test on HCT-116 colon, in the test on M14 melanoma, with MCF7 breast, with MDA-MB-435, in the test with NCI-H23 lung and with NCI/ADR-RES ovarian was over 100 µM in each case. The TGI with OVCAR-3 ovarian, in the test with RPMI-8226 leukemia, with SF-539 CNS, in the test with SK-MEL-2 melanoma and with SK-MEL-28 melanoma was over 100 µM in each case.

As for `CCCCCCCCCC/C=C/C=O`, the TGI in the test with HCT-116 colon, in the test on M14 melanoma, in the test with NCI-H23 lung, in the test with OVCAR-3 ovarian, with SF-539 CNS and in the test with SK-MEL-2 melanoma was over 100 µM throughout. For the same compound, the TGI in the test on SK-MEL-28 melanoma is over 100 µM.

In the case of `C/C(=N\O)C1CC2C=C(C#N)C1N(Cc1ccccc1)C2` (stereo not drawn), the TGI in the test with HCT-116 colon, in the test on M14 melanoma, in the test with MCF7 breast, in the test with MDA-MB-435, in the test with NCI-H23 lung and in the test with NCI/ADR-RES ovarian was over 100 µM throughout. The TGI in the test with OVCAR-3 ovarian, in the test on RPMI-8226 leukemia, in the test on SF-539 CNS and in the test with SK-MEL-28 melanoma was over 100 µM each time.

For the compound `O=C(c1ccccc1)C(Nc1ccc2ccccc2c1)c1ccccc1` (stereo not drawn), the TGI is over 100 µM with HCT-116 colon; over 100 µM in the test with M14 melanoma; over 100 µM in the test on MCF7 breast; over 48 µM in the test with MDA-MB-435; over 100 µM in the test on NCI-H23 lung; over 100 µM in the test with NCI/ADR-RES ovarian. The TGI with OVCAR-3 ovarian was 78.2 µM; in the test with RPMI-8226 leukemia, 33.7 µM; with SF-539 CNS, over 100 µM; in the test on SK-MEL-2 melanoma, 41.8 µM; in the test on SK-MEL-28 melanoma, over 100 µM.

`COc1cc2cc3c4cc(OC)c(OC)cc4cc[n+]3c(C)c2cc1OC`: the TGI in the test on HCT-116 colon, in the test on MCF7 breast, in the test with MDA-MB-435, in the test on NCI-H23 lung, with NCI/ADR-RES ovarian and in the test on OVCAR-3 ovarian was over 100 µM each time. The TGI in the test on RPMI-8226 leukemia, in the test with SF-539 CNS, in the test on SK-MEL-2 melanoma and with SK-MEL-28 melanoma was over 100 µM throughout.

For `COCC12CCC(OC)C34C5CC6(O)C(OC)C=C(C5C6OC(=O)c5ccccc5)C(C(OC)C13)C4N(C)C2` (stereo not drawn), the TGI with HCT-116 colon, in the test with M14 melanoma, in the test on MCF7 breast, in the test with MDA-MB-435, with NCI-H23 lung and in the test on NCI/ADR-RES ovarian was over 100 µM in each case. Besides, the TGI in the test with OVCAR-3 ovarian, with RPMI-8226 leukemia, in the test with SF-539 CNS, with SK-MEL-2 melanoma and in the test on SK-MEL-28 melanoma was over 100 µM throughout.

As to `CCP(=O)(CC)C(Cl)(Cl)C(O)C(Cl)(Cl)Cl` (stereo not drawn), the TGI in the test on HCT-116 colon, with M14 melanoma, with MCF7 breast, in the test with NCI-H23 lung, in the test on NCI/ADR-RES ovarian and in the test with OVCAR-3 ovarian was over 100 µM each time. Further, the TGI in the test with RPMI-8226 leukemia, in the test on SK-MEL-2 melanoma and in the test with SK-MEL-28 melanoma was over 100 µM throughout.

Regarding `[N-]=[N+]=CC(=O)OCC1NC(=O)C(COC(=O)C=[N+]=[N-])NC1=O` (stereo not drawn), the TGI in the test on HCT-116 colon, with M14 melanoma, with MCF7 breast, in the test with MDA-MB-435, with NCI-H23 lung and in the test with NCI/ADR-RES ovarian was over 100 µM throughout. Further, the TGI in the test on OVCAR-3 ovarian, in the test on RPMI-8226 leukemia, with SF-539 CNS, in the test with SK-MEL-2 melanoma and with SK-MEL-28 melanoma was over 100 µM each time.
